Here are results for 64 compounds from PubChem BioAssay AID1508591.

For the data set the following is noted: rat; liver microsomes; pH 7.4; 15.0 min; 1.0 µM. A general note: Liver microsomes are a subcellular fraction often used to study metabolism.
`NC(=O)C1CCN(c2nc(-c3cccc4ccccc34)cs2)CC1` returned a half-life of 4.72 min. For the compound `COC(=O)CNC(=O)c1nc(-c2ccc(Cl)nc2)c2ccccn12`, the half-life came to 4.72 min. For `O=C(Cc1ccc(Cl)c(Cl)c1)Nc1ccc(S(=O)(=O)Nc2ccccc2)cc1`, the half-life turned out to be 4.2 min. Under `CC(=O)NC1CCN(c2nc(-c3ccc(Br)cc3)cs2)CC1` stands > 30 min; under `CC(C)c1nc(CN(C)C(=O)N[C@H](C(=O)N[C@@H](Cc2ccccc2)C[C@H](O)[C@H](Cc2ccccc2)NC(=O)OCc2cncs2)C(C)C)cs1`, 22.1 min. As for `CCOc1ccc(CCNC(=O)c2cc3ccncc3n2Cc2cccc(C)n2)cc1OCC`, the half-life was determined as 29 min. Next, `Cc1ccc(-c2cc(C(=O)Nc3ccc(S(=O)(=O)N(C)C)cc3)c3ccccc3n2)cc1C`: 3.4 min; `CS(=O)(=O)c1ccc(-c2nnc(/C=C/c3nnc(-c4ccc(C#N)cc4)o3)n2-c2ccccc2Cl)nc1`: > 30 min.

On to `Cc1cc(C)nc(NC(=S)N2CCN(c3ccc(C(F)(F)F)cc3[N+](=O)[O-])CC2)c1`, for which the half-life was > 30 min.

Take `COc1ccc(C2Nc3ccccc3C(=O)N2Cc2cccnc2)cc1COc1c(C)cc(NC(C)=O)cc1C` (centres undefined): the half-life was determined as 1.8 min.

With `CCOc1cc2c(cc1OCC)CN(C(=O)c1cc3sccc3n1Cc1ccccc1)CC2`, the half-life came to 2.8 min. Under `Cc1c(-c2nsc(NC(=O)c3cccc(Cl)c3)n2)nnn1-c1ccccc1C(F)(F)F` stands > 30 min. Next, `COc1ccc(N2Cc3cccc(C(=O)Nc4ccc(C(C)C)cc4)c3C2=O)cc1`: > 30 min.

On to `O=C(Nc1nc(-c2ccccc2)cs1)c1ccncc1NS(=O)(=O)c1cccs1`, for which the half-life turned out to be 12 min. On to `Fc1cc(Nc2nc(-c3ccncc3)nc3ccccc23)ccc1-c1ccc(F)c(F)c1F`, for which the half-life worked out at 24 min. For `COc1cccc(CNc2ccc(S(=O)(=O)Nc3nc4ccccc4[nH]3)cc2)c1O`, the half-life was > 30 min. Next, `Cc1cc(Nc2nc(-c3ccncc3)nc3ccccc23)n[nH]1`: 7.3 min; `C[C@H]1CCC[C@H](O)CCC/C=C/c2cc(O)cc(O)c2C(=O)O1`: 15.2 min.

In the case of `CCn1cc(C(=O)O)c(=O)c2cnc(N3CCN(C(=S)Nc4ccccc4)CC3)nc21`, the half-life was > 30 min. Under `CCc1ccc(CNc2ccc3c(c2)ncn3C(C)(C)C)cc1` stands 9.8 min; under `Cc1ccnc(NC(=S)N2CCN(c3cccc(Cl)c3Cl)CC2)c1`, 2.4 min. Next, `COc1cccc(CNc2ccc([S+](=O)([O-])Nc3ccccc3)cc2)c1Cl`: 2.4 min; `COc1ccc(-c2ccc(C(=O)NC3CC(c4cc(=O)[nH]c(N)n4)C3)o2)cc1` (centres undefined): > 30 min; `NC(=O)C1CCN(c2nccc(-c3ccc4c(c3)OCCCO4)n2)CC1`: 4.28 min. Under `Cc1c(CN(C)c2cc(C3CC(O)C3)nc(N)n2)[nH]c2ccccc12` (centres undefined) stands 15 min; under `Cc1c(C(=O)NN2CCCCC2)nn(-c2ccc(Cl)cc2Cl)c1-c1ccc(Cl)cc1`, 5.9 min.

In the case of `Cc1ccc(S(=O)(=O)Nc2ncccc2C(=O)Nc2nc(-c3ccccc3)cs2)cc1`, the half-life came out at 14 min. Next, `O=C(Nc1ccc(Br)cc1)c1ccc(F)c(S(=O)(=O)NC2CCCCCC2)c1`: 3.66 min. Compound `CC(=O)NC(c1cccs1)c1cc(Br)c2cccnc2c1O` (centres undefined) gave a half-life of 5.21 min.

`COc1ccc(S(=O)(=O)N2CCCCCC2)cc1NC(=O)Cc1n[nH]c(=O)c2ccccc12` came in with a half-life of 2.9 min. Under `CC1=Nc2cc(C(=O)NCCc3ccccc3)ccc2Sc2c(C)ccc(C)c21` stands 1.54 min; under `CCOc1ccc(CCNC(=O)c2cc3sccc3n2Cc2ccc(F)cc2F)cc1OCC`, 1.8 min; under `COc1cc(C(=O)NC2CCCc3c2[nH]c2ccccc32)cc(OC)c1OC` (centres undefined), 11.8 min. Next, `CCc1[nH]c2ccc(CNC(=O)Cc3cnc4c(C)cccn34)cc2c1C`: 2.4 min; `Cn1ccc2c(C(=O)NCc3cccnc3)nc(-c3ccc(CO)cc3)cc21`: 15.7 min; `C#C[C@]1(OC(C)=O)CC[C@H]2[C@@H]3CCC4=C/C(=N/O)CC[C@@H]4[C@H]3CC[C@@]21CC`: 3.98 min.

`CN(Cc1ccccc1)C(=O)C1CCN(Cc2cccc3ccccc23)CC1` returned a half-life of 2.4 min. Next, `Cc1c(NC2=C(Cl)C(=O)N(c3ccccc3)C2=O)c(=O)n(-c2ccccc2)n1C`: 23 min; `CCOc1ccc(C2c3c(oc4ccc(C)cc4c3=O)C(=O)N2CCCN(C)C)cc1` (centres undefined): 13.6 min; `O=C1Nc2ccccc2/C1=C/c1ccc[nH]1`: 5.1 min. Under `COC(=O)c1ccc(Nc2nc(-c3ccncc3)nc3ccccc23)cc1OC` stands 9.5 min; under `O=C(Nc1ccc(N2CCN(C(=O)c3ccccc3F)CC2)cc1)c1cncc(Br)c1`, > 30 min; under `O=C(Nc1ccc(-c2nc3cc(NC(=O)c4ccccc4Cl)ccc3o2)cc1)c1ccccc1Cl`, > 30 min.

As for `Nc1ncnc2c1c(-c1ccc(Oc3ccccc3)cc1)cn2C1CCCC1`, the half-life was found to be 10.9 min. Next, `CC(=O)Nc1ncc(S(=O)(=O)Nc2cnccc2C(=O)Nc2nc(-c3ccccc3)cs2)s1`: > 30 min; `COc1ccc(Cn2c(CCC(=O)Nc3cc(C)cc(C)c3)nc3cccnc32)cc1`: 1.47 min; `Fc1ccc(Oc2nc(-c3ccncc3)nc3ccccc23)cc1F`: 15 min. Under `Cc1ccnc(NC(=S)N2CCN(c3ncc(C(F)(F)F)cc3Cl)CC2)c1` stands > 30 min; under `Cc1ccc(-c2cc(C(=O)Nc3ccc(-c4nn[nH]n4)cc3)c3ccccc3n2)cc1C`, > 30 min; under `Fc1cc(Nc2nc(-c3ccncc3)nc3ccccc23)ccc1OC(F)(F)F`, > 30 min. Next, `O=C(c1ccco1)N1CCN(c2nc(-c3ccc(Br)cc3)cs2)CC1`: > 30 min.

`O=C(NCCc1nc2ccccc2n1CCO)C1CCCCC1`: the half-life was 20.3 min.

In the case of `CCCSc1nc(N[C@@H]2C[C@H]2c2ccc(F)c(F)c2)c2nnn([C@@H]3C[C@H](OCCO)[C@@H](O)[C@H]3O)c2n1`, the half-life was > 30 min.

As for `Cc1ccc(N2CCC(CNc3nc(-c4ccccc4C(C)C)ncc3C)CC2)cn1`, the half-life amounted to 2.6 min. Turning to `CC(C)Oc1ccc(CNC(=O)C2CCN(C(=O)N3CCOc4ccc(Cl)cc43)CC2)cc1`, the half-life came out at 9.17 min. Under `Cc1ccccc1C(C(=O)NC1CCCCC1)N(C(=O)Cn1ccnc1C)c1cccc(F)c1` (centres undefined) stands 5.62 min; under `COc1ccc(CCNc2ncnc3c2c(-c2ccccc2)cn3-c2cccc(Cl)c2)cc1OC`, 2.33 min. Next, `O=c1[nH]c(N2CCOCC2)nc2c1CCN(Cc1cc(Cl)ccc1F)CC2`: > 30 min; `Cc1cccc2oc(NC3=NC(c4[nH]ncc4Cl)C4=C(CCCC4=O)N3)nc12` (centres undefined): 10.6 min; `Cc1c(C(=O)OCCOc2ccccc2)[nH]c2c1C(=O)CC(c1ccccc1)C2` (centres undefined): 5.25 min. Take `Cc1ccc(CN2C(=O)C(O)(CC(=O)c3ccc(C)cc3)c3ccccc32)cc1` (centres undefined): the half-life amounted to 1.18 min.

The compound `CCCN(CCC)CCc1cccc2c1CC(=O)N2` displayed a half-life of 2.96 min. With `Cc1cc(C)cc(C(=O)Nc2ccc3c(N4CCCC4)ncnc3c2)c1`, the half-life stood at 8.23 min. The compound `COc1ccc(Nc2nc(-c3cccc(OC)c3)no2)cc1` yielded a half-life of 20.3 min.

Broadly, the half-life is how long it takes for the measured level to halve.
